This test deals with S. aureus strain UNT144-3. Kind of test: S. aureus neutropenic lung model (murine pneumonia model). It is filed as in vivo, Staphylococcus aureus. Conditions: neutropenic mice, 100 mg/kg SC at 2 and 6 hrs post-infection, CFU assessed 24 hr. As to the method: In a non-limiting example, the sensitivity of two S. aureus clinical isolates, UNT109-3 (NRS234, native valve endocarditis) and UNT144-3, that have been previously utilized in animal models of infection, was evaluated vs. the individual phage and the 4-phage cocktail. […] The virulence of the two strains was then evaluated in the murine lung infection model. Female Hsd:ICR(CD-1) mice (Harlan Laboratories, Houston, Tex.) were administered 150 and 100 mg/kg cyclophosphamide on day −4 and day −1 prior to infection to render them neutropenic. Groups of 5 mice were then anaesthetized by intraperitoneal (IP) injection of 0.15 mL of a mixture of ketamine HCl (100 mg/kg body weight) plus xylazine (10 mg/kg body weight). Once anaesthetized, mice were infected intranasally by placing drops on the external nares and allowing inhalation of the 50 μl inoculum. Twenty-four hours after infection, mice were euthanized by CO2 inhalation and lungs processed for bacterial titers. Bacterial counts were enumerated on Brain Heart Infusion agar (Difco™ Laboratories)+0.5% activated charcoal (Sigma-Aldrich) plates for ease of recovering and detecting S. aureus (Barr, J. G., et al., J Clin. Pathol. (1987) 40:372-376). […]
Three phage cocktail treatment groups were evaluated for efficacy: 2×10^10 PFU/mL per phage, 2×10^9 PFU/mL per phage, and 2×10^8 PFU/mL per phage. […]

Several values for one entry are separate records, joined by “and”; a condition that tells them apart may be missing. Equal entries are not always repeated.

As to `CN[C@H](CC(C)C)C(=O)N[C@H]1C(=O)N[C@@H](CC(N)=O)C(=O)N[C@H]2C(=O)N[C@H]3C(=O)N[C@H](C(=O)N[C@H](C(=O)O)c4cc(O)cc(O)c4-c4cc3ccc4O)[C@H](O)c3ccc(c(Cl)c3)Oc3cc2cc(c3O[C@@H]2O[C@H](CO)[C@@H](O)[C@H](O)[C@H]2O[C@H]2C[C@](C)(N)[C@H](O)[C@H](C)O2)Oc2ccc(cc2Cl)[C@H]1O` [Vancomycin], the “Mean ± SD logo CFU/Lung Pair” value was 5.55 log10 CFU/lung pair and 5.55 ± 1.1 log10 CFU/lung pair.

These data come from patent US11253557B2, “Therapeutic bacteriophage compositions” (priority 2015, dated 2022).
